Reference: US20260116910A1, “POLYCYCLIC COMPOUNDS AND METHODS THEREOF” (HEPAITECH (BEIJING) BIOPHARMA TECHNOLOGY CO., LTD., priority 2021, published 2026)
Read-outs that look alike come from different tables or passages of the source.

Legend:
[1] = molecular target: MRGPRX4 (Homo sapiens, UniProt Q96LA9); test: MRGPRX4 activation, Fluo-8 Ca2+ FLIPR assay in HEK293T cells stably expressing MRGPRX4; format: cell-based; design: key to MRGPRX4 activation, Average / MRGPRX4 activation, Ave.: fluorescence change dF/F0
Method in brief: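 Cells seeded overnight to >95% confluence, loaded 40-60 min at room temperature with 2 μM Fluo-8 AM, then kept in HHBS. Baseline read 30 s, compound added, signal followed 150 s more.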

[2] = molecular target: T1, human FXR (NR1H4) (Homo sapiens, UniProt Q96RI1); test: Human FXR (NR1H4) agonist assessment, FXRE-NanoLuc reporter in HEK293T cells; format: cell-based
T1 sequence (Q96RI1 1-476 isoform Q96RI1-1): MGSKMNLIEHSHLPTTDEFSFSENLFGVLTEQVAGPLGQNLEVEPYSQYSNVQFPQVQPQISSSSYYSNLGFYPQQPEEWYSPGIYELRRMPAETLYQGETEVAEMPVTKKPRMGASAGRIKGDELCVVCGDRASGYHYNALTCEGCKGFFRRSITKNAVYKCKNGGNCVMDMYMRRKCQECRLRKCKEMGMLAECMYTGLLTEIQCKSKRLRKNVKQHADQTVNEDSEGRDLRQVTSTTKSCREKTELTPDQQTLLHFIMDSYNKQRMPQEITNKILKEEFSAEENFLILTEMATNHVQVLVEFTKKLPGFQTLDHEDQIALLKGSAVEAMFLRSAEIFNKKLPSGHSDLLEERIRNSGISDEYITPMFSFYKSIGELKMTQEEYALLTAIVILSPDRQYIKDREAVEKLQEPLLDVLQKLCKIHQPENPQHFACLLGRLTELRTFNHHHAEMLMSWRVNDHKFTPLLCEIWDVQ
Method in brief: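 HEK293T cells stably expressing human FXR with an FXRE-NanoLuc reporter were treated with compounds for 24 hr at 37 °C, with 0.01% DMSO as negative control. Medium was read for luminescence after 5 min with coelenterazine. EC50 was fitted by sigmoid to concentration-response data.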

[3] = MRGPRX4 activation, Ca2+ fluorescence, no activation in tested range reported as III, read-out: Activity (EC50 μM)
[4] = FXR activation, HEK293T FXRE-NanoLuc reporter, 24 hr
[5] = FXR activation, HEK293T FXRE-NanoLuc reporter, 24 hr, read-out: EC50

Sequence of MRGPRX4 (Q96LA9 whole entry): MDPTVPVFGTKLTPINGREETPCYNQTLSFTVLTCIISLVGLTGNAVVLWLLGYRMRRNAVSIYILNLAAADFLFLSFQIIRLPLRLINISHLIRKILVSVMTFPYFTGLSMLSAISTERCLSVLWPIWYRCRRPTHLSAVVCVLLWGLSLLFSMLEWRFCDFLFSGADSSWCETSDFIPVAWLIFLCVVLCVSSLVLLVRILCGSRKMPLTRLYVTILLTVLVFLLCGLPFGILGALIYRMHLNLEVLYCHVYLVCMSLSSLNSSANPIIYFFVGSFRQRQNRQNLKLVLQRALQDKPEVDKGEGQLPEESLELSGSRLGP

Structure (SMILES)	MRGPRX4 activation, Average ([1]; E3-9, Conc. (Log[M]) −4.0)	MRGPRX4 activation, Average ([1]; E3-9, Conc. (Log[M]) −4.5)	MRGPRX4 activation, Average ([1]; E3-9, Conc. (Log[M]) −5.0)	MRGPRX4 activation, Average ([1]; E3-9, Conc. (Log[M]) −5.4)	MRGPRX4 activation, Average ([1]; E3-9, Conc. (Log[M]) −5.9)	MRGPRX4 activation, Average ([1]; E3-9, Conc. (Log[M]) −6.4)	MRGPRX4 activation, Average ([1]; E3-9, Conc. (Log[M]) −6.9)	MRGPRX4 activation, Average ([1]; E3-9, Conc. (Log[M]) −7.3)	MRGPRX4 activation, Average ([1]; E3-9, Conc. (Log[M]) −7.8)	MRGPRX4 activation, Average ([1]; E3-9, Conc. (Log[M]) −8.3)	EC50 [1, 3] [µM]	Efficacy (maximum measured induction of NanoLuc, normalized to CDCA set as 100%) [2, 4]	EC50 [2, 5] [µM]	also measured
CC[C@H]1[C@@H](O)[C@@H]2[C@H](CC[C@]3(C)[C@@H]([C@H](C)CCNS(=O)(=O)CC(C)C)CC[C@@H]23)[C@@]2(C)CCCC[C@@H]12 [6-4]	0.027	0.011	0.011	0.018	0.016	0.011	0.018	0.018	0.020	0.018	> 100	C (100%<efficacy <=300%)	> 10	–
CC[C@H]1[C@@H](O)[C@@H]2[C@H](CC[C@]3(C)[C@@H]([C@H](C)CCNS(=O)(=O)C4CC4)CC[C@@H]23)[C@@]2(C)CCCC[C@@H]12 [6-5]	0.025	0.020	0.018	0.020	0.018	0.016	0.018	0.016	0.020	0.018	> 100	C (100%<efficacy <=300%)	1 to 10	–
CC[C@H]1[C@@H](O)[C@@H]2[C@H](CC[C@]3(C)[C@@H]([C@H](C)CCN=C=S)CC[C@@H]23)[C@@]2(C)CCCC[C@@H]12 [7-1]	0.020	0.018	0.013	0.013	0.011	0.013	0.004	0.008	0.006	0.011	–	C (100%<efficacy <=300%)	–	EC50 [1]: > 100 µM; EC50 [2]: > 10 µM
CC[C@H]1[C@@H](O)[C@@H]2[C@H](CC[C@]3(C)[C@@H]([C@H](C)CCNC(=O)C(=O)NS(=O)(=O)c4cccs4)CC[C@@H]23)[C@@]2(C)CCCC[C@@H]12 [8-2]	0.020	0.018	0.018	0.016	0.018	0.011	0.018	0.008	0.011	0.006	> 100	–	< 1	Efficacy (maximum measured induction of NanoLuc, normalized to CDCA set as 100%) [2]: B (key: A: efficacy >400%; B: 300%<efficacy <=400%; C: 100%<efficacy <=300%; D: efficacy <=100%)
CC[C@H]1[C@@H](O)[C@@H]2[C@H](CC[C@]3(C)[C@@H]([C@H](C)CCNC(=O)C(=O)NS(=O)(=O)c4ccc(C(C)(C)CF)cc4)CC[C@@H]23)[C@@]2(C)CCCC[C@@H]12 [8-3]	0.023	0.016	0.016	0.023	0.025	0.013	0.013	0.013	0.011	0.018	> 100	C (100%<efficacy <=300%)	< 1	–
CC[C@H]1[C@@H](O)[C@@H]2[C@H](CC[C@]3(C)[C@@H]([C@H](C)CCNC(=O)C(=O)NS(=O)(=O)c4cc(F)cc(F)c4)CC[C@@H]23)[C@@]2(C)CCCC[C@@H]12 [8-4]	–	–	–	–	–	–	–	–	–	–	> 100	B (300%<efficacy <=400%)	< 1	MRGPRX4 activation, Ave. ([1]; E3-7, Conc. (Log[M]) −4): −0.041; MRGPRX4 activation, Ave. ([1]; E3-7, Conc. (Log[M]) −4.5): −0.027; MRGPRX4 activation, Ave. ([1]; E3-7, Conc. (Log[M]) −5): −0.014; MRGPRX4 activation, Ave. ([1]; E3-7, Conc. (Log[M]) −5.5): −0.014; MRGPRX4 activation, Ave. ([1]; E3-7, Conc. (Log[M]) −6): 0.000; MRGPRX4 activation, Ave. ([1]; E3-7, Conc. (Log[M]) −7): 0.000
CC[C@H]1[C@@H](O)[C@@H]2[C@H](CC[C@]3(C)[C@@H]([C@H](C)CCNC(=O)C(=O)NS(=O)(=O)c4cc(F)ccc4F)CC[C@@H]23)[C@@]2(C)CCCC[C@@H]12 [8-5]	0.030	0.016	0.018	0.018	0.018	0.016	0.020	0.016	0.011	0.011	> 100	C (100%<efficacy <=300%)	< 1	–
CC[C@H]1[C@@H](O)[C@@H]2[C@H](CC[C@]3(C)[C@@H]([C@H](C)CCNC(=O)NS(=O)(=O)c4ccc(C(C)(C)CF)cc4)CC[C@@H]23)[C@@]2(C)CC[C@H](F)C[C@@H]12 [9-1]	0.019	0.021	0.012	0.018	0.014	0.019	0.016	0.016	0.012	0.018	> 100	B (300%<efficacy <=400%)	< 1	–
